The results in this text go back to ChEMBL document CHEMBL4373690, “Photoactivatable Prolyl Hydroxylase 2 Inhibitors for Stabilizing the Hypoxia-Inducible Factor with Light” (J Med Chem, 2019).

Active and inactive are the calls of the source. The rule behind the calls is not given here.

Data set [1] addresses Egl nine homolog 1 (Homo sapiens) (UniProt Q9GZT9). Put plainly: Photoactivated inhibition of PHD2 (181 to 426 residues) (unknown origin) at 1.23 uM using FITC-HIF1alpha (556 to 574 residues) as substrate incubated for 60 mins using laser irradiated compound at 405 nm light by fluorescence polarization assay.
Data set [2] is described as follows: Drug metabolism in pH 7.4 PBS assessed as light-mediated formation of N-(5-(1-(2-(4-chlorophenoxy)ethyl)-1H-1,2,3-triazol-4-yl)-3-hydroxypicolinoyl)glycine at 50 uM followed by laser irradiation for 120 mins by HPLC analysis.
The test system of data set [3] is HUVEC. Put plainly: Cytotoxicity against HUVEC cells at 100 uM after 72 hrs by MTT assay. Format: cell-based. The settings on record: human. (In general: Tetrazolium dyes change colour on reduction, which living cells bring about.)
Data set [4] concerns L02. Put plainly: Cytotoxicity against human L02 cells at 100 uM after 72 hrs by MTT assay. Format: cell-based. The settings on record: l02, 72 h.
Data set [5] concerns HEK293. Description: Cytotoxicity against HEK293 cells at 100 uM after 72 hrs by MTT assay. The settings on record: human, hek293, 72 h. Format: cell-based.
The test system of data set [6] is Hep 3B2. Put plainly: Cytotoxicity against human Hep3B cells at 100 uM after 72 hrs by MTT assay. Format: cell-based. The settings on record: hep 3b2, 72 h.
Data set [7] can be described thus: Chemical stability in pH 7.4 PBS buffer at 50 uM measured over 24 hrs by HPLC analysis. Format: physicochemical. The settings on record: pH 7.4, 24 h.
The nature of data set [8]: Drug metabolism in pH 7.4 PBS assessed as light-mediated formation of N-(5-(1-(2-(4-chlorophenoxy)ethyl)-1H-1,2,3-triazol-4-yl)-3-hydroxypicolinoyl)glycine at 50 uM followed by laser irradiation by HPLC analysis.
Data set [9] is described as follows: Drug metabolism in pH 7.4 PBS assessed as light-mediated formation of N-(5-(1-(2-(4-chlorophenoxy)ethyl)-1H-1,2,3-triazol-4-yl)-3-hydroxypicolinoyl)glycine at 50 uM followed by laser irradiation by UV-Visible spectroscopy.
A short description of data set [10]: Drug metabolism in pH 7.4 PBS assessed as light-mediated formation of N-(5-(1-(2-(4-chlorophenoxy)ethyl)-1H-1,2,3-triazol-4-yl)-3-hydroxypicolinoyl)glycine at 50 uM followed by laser irradiation for 5 mins by HPLC analysis.
For data set [11], the target named is Egl nine homolog 1 (Homo sapiens) (UniProt Q9GZT9). Description: Photoactivated inhibition of PHD2 in human Hep3B cells assessed as increase in HIF-1alpha level in presence of light irradiation for 1 to 20 mins measured after 10 hrs by Western blot analysis. Format: cell-based. Background: Immunoblotting shows a protein as a band on a membrane.
Data set [12] in a line: Drug metabolism in pH 7.4 PBS assessed as light-mediated formation of N-(5-(1-(2-(4-chlorophenoxy)ethyl)-1H-1,2,3-triazol-4-yl)-3-hydroxypicolinoyl)glycine at 50 uM followed by laser irradiation for 9 mins by HPLC analysis.
The nature of data set [13]: Drug metabolism in pH 7.4 PBS assessed as light-mediated formation of N-(5-(1-(2-(4-chlorophenoxy)ethyl)-1H-1,2,3-triazol-4-yl)-3-hydroxypicolinoyl)glycine at 50 uM followed by laser irradiation for 20 mins by HPLC analysis.
Data set [14] concerns the target Egl nine homolog 1 (Homo sapiens) (UniProt Q9GZT9). Description: Photoactivated inhibition of PHD2 (181 to 426 residues) (unknown origin) at 1.23 uM using FITC-HIF1alpha (556 to 574 residues) as substrate incubated for 60 mins using laser irradiated compound at 405 nm light for 20 mins by fluorescence polarization assay relative to control. (In general: Fluorescence polarisation rises when a labelled molecule tumbles more slowly, as on binding a larger partner.)

Data set [15] in a line: Drug metabolism in pH 7.4 PBS assessed as light-mediated formation of N-(5-(1-(2-(4-chlorophenoxy)ethyl)-1H-1,2,3-triazol-4-yl)-3-hydroxypicolinoyl)glycine at 50 uM followed by laser irradiation for 30 secs to 20 mins by UV-Visible spectroscopy.
Data set [16] deals with Egl nine homolog 1 (Homo sapiens) (UniProt Q9GZT9). Description: Photoactivated inhibition of PHD2 in human Hep3B cells assessed as stabilization of HIFalpha by measuring upregulation of EPO gene expression at 50 uM in presence of light irradiation for 1 to 30 mins by qRT-PCR analysis. Format: cell-based.
Data set [17] shares this target. Put plainly: Photoactivated inhibition of PHD2 (181 to 426 residues) (unknown origin) at 1.23 uM using FITC-HIF1alpha (556 to 574 residues) as substrate incubated for 60 mins using laser irradiated compound at 405 nm light for >20 mins by fluorescence polarization assay.
Data set [18] can be described thus: Drug metabolism in pH 7.4 PBS assessed as light-mediated formation of 7-(diethylamino)-4-(hydroxymethyl)-2H-chromen-2-one at 50 uM followed by laser irradiation by UV-Visible spectroscopy.
The nature of data set [19]: Stability in human plasma assessed as compound remaining at […] measured at 8 hrs by HPLC analysis. The settings on record: read-out: Stability. Format: ADME, cell-free.
The target in data set [20] is Egl nine homolog 1 (Homo sapiens) (UniProt Q9GZT9). Description: Photoactivated inhibition of PHD2 in HEK293 cells harboring firefly luciferase gene and renilla luciferase gene assessed as stabilization of HIF-alpha at 100 uM using […] under light irradiation for 1 to 30 mins and measured after 24 hrs by chemiluminescence assay. Format: cell-based.

Data set [21] has the same target. Put plainly: Photoactivated inhibition of PHD2 in HEK293 cells harboring firefly luciferase gene and renilla luciferase gene assessed as spatiotemporal dependent accumulation of hypoxia response element level at 100 uM using […] under laser light irradiation after 24 hrs by chemiluminescence assay. Format: cell-based.
Data set [22] is described as follows: Drug metabolism in pH 7.4 PBS assessed as light-mediated formation of N-(5-(1-(2-(4-chlorophenoxy)ethyl)-1H-1,2,3-triazol-4-yl)-3-hydroxypicolinoyl)glycine at 50 uM followed by laser irradiation for 30 secs by HPLC analysis.
Data set [23] has as its target Egl nine homolog 1 (Homo sapiens) (UniProt Q9GZT9). Description: Photoactivated inhibition of PHD2 in human Hep3B cells assessed as increase in HIF-2alpha level in presence of light irradiation for 1 to 20 mins measured after 10 hrs by Western blot analysis. Format: cell-based.
Data set [24] can be described thus: Stability in rat plasma assessed as compound remaining at […] measured at 8 hrs by HPLC analysis. Format: ADME, cell-free. The settings on record: read-out: Stability.
The nature of data set [25]: Drug metabolism in pH 7.4 PBS assessed as light-mediated formation of N-(5-(1-(2-(4-chlorophenoxy)ethyl)-1H-1,2,3-triazol-4-yl)-3-hydroxypicolinoyl)glycine at 50 uM followed by laser irradiation for 15 mins by HPLC analysis.
Data set [26] is described as follows: Drug metabolism in pH 7.4 PBS assessed as light-mediated formation of N-(5-(1-(2-(4-chlorophenoxy)ethyl)-1H-1,2,3-triazol-4-yl)-3-hydroxypicolinoyl)glycine at 50 uM followed by laser irradiation for 2 mins by HPLC analysis.
For data set [27], the target named is Egl nine homolog 1 (Homo sapiens) (UniProt Q9GZT9). Description: Photoactivated inhibition of PHD2 in human Hep3B cells assessed as increase in HIF-1alpha level in nucleus in presence of light irradiation for 20 mins measured after 10 hrs by Western blot analysis. Format: cell-based.
Data set [28] can be described thus: Drug metabolism in pH 7.4 PBS assessed as light-mediated formation of 7-(diethylamino)-4-(hydroxymethyl)-2H-chromen-2-one at 50 uM followed by laser irradiation by HPLC analysis.
Data set [29] has as its target Egl nine homolog 1 (Homo sapiens) (UniProt Q9GZT9). Put plainly: Photoactivated inhibition of PHD2 in human Hep3B cells assessed as stabilization of HIFalpha by measuring upregulation of EPO gene expression at 50 uM in presence of light irradiation for >20 mins by qRT-PCR analysis. Format: cell-based.
The target is the same in data set [30]. Description: Photoactivated inhibition of PHD2 in human Hep3B cells assessed as increase in HIF-2alpha level in nucleus in presence of light irradiation for 20 mins measured after 10 hrs by Western blot analysis. Format: cell-based.
The target is the same in data set [31]. Put plainly: Photoactivated inhibition of PHD2 (181 to 426 residues) (unknown origin) using FITC-HIF1alpha (556 to 574 residues) as substrate incubated for 60 mins using laser irradiated compound at 405 nm light for 30 secs to 30 mins by fluorescence polarization assay.

Sequence of Egl nine homolog 1 (Homo sapiens) (Q9GZT9 2-426 limits assumed): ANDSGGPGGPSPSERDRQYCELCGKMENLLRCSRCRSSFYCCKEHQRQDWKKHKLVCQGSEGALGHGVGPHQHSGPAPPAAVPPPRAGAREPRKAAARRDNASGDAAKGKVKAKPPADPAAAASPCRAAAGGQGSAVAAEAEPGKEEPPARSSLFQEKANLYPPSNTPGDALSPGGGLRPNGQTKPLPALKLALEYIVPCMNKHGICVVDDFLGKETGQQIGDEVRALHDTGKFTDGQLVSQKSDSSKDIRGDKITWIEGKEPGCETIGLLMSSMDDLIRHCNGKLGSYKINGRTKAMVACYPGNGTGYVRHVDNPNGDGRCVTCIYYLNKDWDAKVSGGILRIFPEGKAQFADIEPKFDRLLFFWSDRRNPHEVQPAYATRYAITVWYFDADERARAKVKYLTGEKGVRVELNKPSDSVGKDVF

In the case of `CCN(CC)c1ccc2c(COc3cc(-c4cn(CCOc5ccc(Cl)cc5)nn4)cnc3C(=O)NCC(=O)O)cc(=O)oc2c1`, in data set [1], the inhibition (in general, how much of the control response was suppressed) is “inactive”. For the same compound, the Drug metabolism entry in [2] is “Metabolite not detected”.

For the compound `O=C(O)CNC(=O)c1ncc(-c2cn(CCOc3ccc(Cl)cc3)nn2)cc1O`, the Activity entry in data set [3], in data set [4], in data set [5] and in data set [6] was “Non-Toxic” throughout.

In the case of `CCN(CC)c1ccc2c(COC(=O)CNC(=O)c3ncc(-c4cn(CCOc5ccc(Cl)cc5)nn4)cc3O)cc(=O)oc2c1`, the Stability entry in [7] was “Stable”. Moreover, the Drug metabolism result was “Metabolite detected” in data set [8]; “Metabolite detected” in [9]; 49% in [10]; 68% in data set [12]; 100% in data set [13]; “Metabolite detected” in data set [15]. For the same compound, the Drug metabolism result in data set [18] was “Metabolite detected”; in [22], 5%; in [25], 82%; in [26], 16%; in data set [28], “Metabolite detected”. For the same compound, the inhibition result in data set [11], in data set [16], in data set [17], in data set [20], in [21] and in data set [23] was “Active” throughout. Also, the inhibition entry in [27], in [29], in data set [30] and in data set [31] was “Active” each time. Also, the Activity entry in data set [3], in data set [4], in data set [5] and in [6] was “Non-Toxic” in each case. Further, the inhibition in data set [14] was 95.2%. Further, the remaining at 8 h in [19] and in data set [24] was > 90% throughout.
